Read-outs that look alike come from different tables or passages of the source. Peptide text beside a SMILES is read from it.
Assays:
P. aeruginosa PAO1-L = assay: microbe, parasite or virus in culture; type: cell-based
From the text: (§1) A range of Gram-positive and Gram-negative laboratory- and clinical-strain bacteria were used for the experiments. These included laboratory-strain methicillin-sensitive S. aureus (MSSA; including SH1000 and ATCC SA29213), laboratory-strain MRSA (ATCC MRSA43300), clinical-strain MRSA (MRSA-OS; an IK isolate), laboratory-strain methicillin-sensitive Staphylococcus epidermidis (MSSE; ATCC SE12228), laboratory invasive-strain P. aeruginosa (PAO1-L), and clinical cytotoxic-strain P. aeruginosa (PA-OS; an IK isolate).
(§2) In vitro antimicrobial efficacy of the antibiotics and designed HDPs was determined using an established MIC assay with broth microdilution method approved by the Clinical and Laboratory Standards Institute (CLSI)[64]. Briefly, the microorganisms were cultured on Tryptone Soya Agar (TSA) and incubated overnight for 18–21 h at 37 °C. Bacterial inoculums were subsequently prepared using the direct colony suspension method. Three to five bacterial colonies were obtained from the agar plate and inoculated into an Eppendorf tube containing 1 ml of cation-adjusted Muller-Hinton broth (caMHB), consisting of 20–25 mg/L calcium ions (Ca^2+) and 10–12.5 mg/L magnesium ions (Mg^2+). The bacterial suspension was adjusted to achieve a turbidity equivalent to 0.1 OD600 or 0.5 MacFarland, containing ~ 1.5 × 10^8 colony-forming unit (CFU)/ml, which was then further diluted in 1:150 in caMHB to reach a final bacterial concentration of ~ 1 × 10^6 colony forming units (CFU)/ml. Each treatment (peptide or antibiotic) was prepared in 1:2 serial dilution in 96-well polypropylene microplates (with a final treatment volume of 50 μl per well), followed by the addition of 50 μl of 1 × 10^6 CFU/ml bacteria into each well (with a final bacterial concentration of 5 × 10^5 CFU/ml).

MRSA-OS = assay: microbe, parasite or virus in culture; type: cell-based, Staphylococcus aureus; settings: 24 h
From the text: as §1, §2

S. aureus SH1000 = assay: microbe, parasite or virus in culture; type: cell-based, Staphylococcus aureus
From the text: as §1, §2

[1] = system: human corneal epithelial cells (HCE-2); assay: cells; type: cell-based; settings: 3 h
Method: Cell viability and cytotoxicity of antibiotics and peptides were determined against human corneal epithelial cells (HCE-2, CRL-11135, ATCC, Manassas, Virginia, USA) using cell-counting-kit-8 (CCK-8) assay (Sigma Aldrich, Merck Life Science UK Limited, Dorset, UK) and lactate dehydrogenase (LDH) assay (ThermoFisher Scientific, UK), respectively, as per manufacturer’s guidelines. HCE-2 cells were cultured and seeded into a 96-well plate at a density of 7.5 × 10^3 cells/well and allowed to attach overnight and grew to 80–90% confluency in keratinocyte serum free medium (KSFM) supplemented with human recombinant epidermal growth factor, bovine pituitary extract, hydrocortisone, and insulin. Once the confluency reached 80–90%, the cells were incubated with treatment for 3 h before OD450 measurement was taken using BMG Clariostar microplate reader (BMG Labtech Ltd., Aylesbury, UK). Appropriate controls were used, including 0.1% Triton X-100 as positive control and KSFM as negative control. Cell viability was calculated using the following formula: [([…]) × 100; I = intensity] and cytotoxicity was calculated using the following formula: [((Itreatment – INC)/(IPC – INC)) × 100].

P. aeruginosa PA-OS = assay: microbe, parasite or virus in culture; type: cell-based; settings: 24 h
From the text: as §1, §2

[2] = 0 mM NaCl, caMHB, 24 h, read-out: MIC
[3] = 0 mM NaCl, caMHB, read-out: MIC

Row | SMILES | MIC (P. aeruginosa PAO1-L; [2]) | MIC (P. aeruginosa PAO1-L; PAO1, 24 h) | MIC (MRSA-OS; [3]) | MIC (MRSA-OS; -OS) | MIC (S. aureus SH1000; [2]) | MIC (S. aureus SH1000; SH1000, 24 h) | MIC (P. aeruginosa PA-OS; PA-OS) | MIC (P. aeruginosa PA-OS; [3]) | MIC (S. aureus SH1000; 150 mM NaCl, caMHB, 24 h, read-out: MIC) | IC50 (concentration causing 50% inhibition of cell viability) [1] | Imax (%): percentage of inhibition of cell viability at 200 µg/ml ([1]; HCE-2, CCK-8 assay, 200 µg/ml, mean (SD))
1 | NCCCC[C@H](NC(=O)[C@H](CS)NC(=O)[C@H](CS)NC(=O)[C@@H](N)CCCCN)C(=O)N[C@@H](CCCCN)C(=O)N1CCC[C@H]1C(=O)O [BD2-6, KCCKKP] (H-KCCKKP-OH; N-terminus and C-terminus assumed) | > 283.3 µM | > 200 µg/mL | > 283.3 µM | > 200 µg/mL | > 283.3 µM | > 200 µg/mL |  |  |  |  | 
2 | CC[C@H](C)[C@H](NC(=O)[C@H](CCCNC(=N)N)NC(=O)[C@H](CCC(N)=O)NC(=O)[C@@H](NC(=O)[C@@H](NC(=O)[C@H](CCCNC(=N)N)NC(=O)[C@@H](N)CCCCN)[C@@H](C)CC)C(C)C)C(=O)N[C@@H](CCCCN)C(=O)N[C@@H](CC(=O)O)C(=O)N[C@@H](Cc1ccccc1)C(=O)N[C@@H](CC(C)C)C(=O)N[C@@H](CCCNC(=N)N)C(=O)O [Ca12, KRIVQRIKDF LR] (H-KRIVQRIKDFLR-OH; N-terminus and C-terminus assumed) |  | 200 µg/mL |  | > 200 µg/mL |  | > 200 µg/mL |  |  |  |  | 
3 | CC[C@H](C)[C@H](NC(=O)[C@H](CCCNC(=N)N)NC(=O)[C@H](CCC(N)=O)NC(=O)[C@@H](NC(=O)[C@@H](NC(=O)[C@H](CCCNC(=N)N)NC(=O)[C@@H](N)CCCCN)[C@@H](C)CC)C(C)C)C(=O)N[C@@H](CCCCN)C(=O)N[C@@H](CC(=O)O)C(=O)N[C@@H](Cc1ccccc1)C(=O)N[C@@H](CC(C)C)C(=O)N[C@@H](CCCNC(=N)N)C(=O)N[C@@H](CCCNC(=N)N)C(=O)NCC(=O)N[C@@H](CCCCN)C(=O)N[C@@H](C)C(=O)N[C@@H](CCCCN)C(=O)O [CaD1, KRIVQRIKDF LRRGKAK] (H-KRIVQRIKDFLRRGKAK-OH; N-terminus and C-terminus assumed) |  | > 200 µg/mL |  | > 200 µg/mL |  | > 200 µg/mL |  |  |  |  | 
4 | CC[C@H](C)[C@H](NC(=O)[C@@H](N)CCCNC(=N)N)C(=O)N[C@@H](CCCCN)C(=O)N[C@@H](CC(=O)O)C(=O)N[C@@H](Cc1ccccc1)C(=O)N[C@@H](CC(C)C)C(=O)N[C@@H](CCCNC(=N)N)C(=O)N[C@@H](CC(N)=O)C(=O)NCC(=O)N[C@@H](CCCNC(=N)N)C(=O)N[C@@H](CCCCN)C(=O)N[C@@H](CS)C(=O)N[C@@H](CS)C(=O)N[C@@H](CCCNC(=N)N)C(=O)N[C@@H](CCCNC(=N)N)C(=O)N[C@@H](CCCCN)C(=O)N[C@@H](CCCCN)C(=O)O [CaD3, RIKDFLRNGR KCCRRKK] (H-RIKDFLRNGRKCCRRKK-OH; N-terminus and C-terminus assumed) | > 91.8 µM | > 200 µg/mL | > 91.8 µM | > 200 µg/mL | > 91.8 µM | > 200 µg/mL |  |  |  |  | 
5 | CC[C@H](C)[C@H](NC(=O)[C@H](CCCNC(=N)N)NC(=O)[C@H](CCC(N)=O)NC(=O)[C@@H](NC(=O)[C@@H](NC(=O)[C@H](CCCNC(=N)N)NC(=O)[C@@H](N)CCCCN)[C@@H](C)CC)C(C)C)C(=O)N[C@@H](CCCCN)C(=O)N[C@@H](CC(=O)O)C(=O)N[C@@H](Cc1ccccc1)C(=O)N[C@@H](CC(C)C)C(=O)N[C@@H](CCCNC(=N)N)C(=O)N[C@@H](CCCCN)C(=O)N[C@@H](C)C(=O)N[C@@H](CS)C(=O)N[C@@H](CCCCN)C(=O)N[C@@H](CCCCN)C(=O)N1CCC[C@H]1C(=O)O [CaD21, KRIVQRIKDF LRKACKKP] (H-KRIVQRIKDFLRKACKKP-OH; N-terminus and C-terminus assumed) |  |  |  | > 200 µg/mL |  | 200 µg/mL | 200 µg/mL |  |  | > 200 µg/mL | 
6 | N=C(N)NCCC[C@H](NC(=O)CNC(=O)[C@@H](N)CCCNC(=N)N)C(=O)N[C@@H](CCCCN)C(=O)N[C@@H](CS)C(=O)N[C@@H](CS)C(=O)N[C@@H](CCCNC(=N)N)C(=O)N[C@@H](CCCNC(=N)N)C(=O)N[C@@H](CCCCN)C(=O)N[C@@H](CCCCN)C(=O)N[C@@H](CCCCN)C(=O)N[C@@H](CS)C(=O)N[C@@H](CS)C(=O)N[C@@H](CCCCN)C(=O)N[C@@H](CCCCN)C(=O)N1CCC[C@H]1C(=O)O [DD32, RGRKCCRRKK KCCKKP] (H-RGRKCCRRKKKCCKKP-OH; N-terminus and C-terminus assumed) | > 101 µM | > 200 µg/mL | > 101 µM |  | > 101 µM | > 200 µg/mL |  |  |  |  | 

Continued, in another order:

Row | MIC (P. aeruginosa PAO1-L; [2]) | MIC (P. aeruginosa PAO1-L; PAO1, 24 h) | MIC (MRSA-OS; [3]) | MIC (MRSA-OS; -OS) | MIC (S. aureus SH1000; [2]) | MIC (S. aureus SH1000; SH1000, 24 h) | MIC (P. aeruginosa PA-OS; PA-OS) | MIC (P. aeruginosa PA-OS; [3]) | MIC (S. aureus SH1000; 150 mM NaCl, caMHB, 24 h, read-out: MIC) | SMILES | IC50 (concentration causing 50% inhibition of cell viability) [1] | Imax (%): percentage of inhibition of cell viability at 200 µg/ml ([1]; HCE-2, CCK-8 assay, 200 µg/ml, mean (SD))
7 | > 154.9 µM | > 200 µg/mL | > 154.9 µM | > 200 µg/mL | > 154.9 µM | > 200 µg/mL |  |  |  | N=C(N)NCCC[C@H](NC(=O)CNC(=O)[C@@H](N)CCCNC(=N)N)C(=O)N[C@@H](CCCCN)C(=O)N[C@@H](CS)C(=O)N[C@@H](CS)C(=O)N[C@@H](CCCNC(=N)N)C(=O)N[C@@H](CCCNC(=N)N)C(=O)N[C@@H](CCCCN)C(=O)N[C@@H](CCCCN)C(=O)O [BD3-10, RGRKCCRRKK] (H-RGRKCCRRKK-OH; N-terminus and C-terminus assumed) |  | 
8 | 87.0 µM | 200 µg/mL | > 87.0 µM | > 200 µg/mL | 43.5 µM |  | 200 µg/mL | 87.0 µM | > 87.0 µM | CC[C@H](C)[C@H](NC(=O)[C@H](CCCNC(=N)N)NC(=O)[C@H](CCC(N)=O)NC(=O)[C@@H](NC(=O)[C@@H](NC(=O)[C@H](CCCNC(=N)N)NC(=O)[C@@H](N)CCCCN)[C@@H](C)CC)C(C)C)C(=O)N[C@@H](CCCCN)C(=O)N[C@@H](CC(=O)O)C(=O)N[C@@H](Cc1c[nH]c2ccccc12)C(=O)N[C@@H](CC(C)C)C(=O)N[C@@H](CCCNC(=N)N)C(=O)N[C@@H](CCCCN)C(=O)N[C@@H](CS)C(=O)N[C@@H](CS)C(=O)N[C@@H](CCCCN)C(=O)N[C@@H](CCCCN)C(=O)N1CCC[C@H]1C(=O)O [CaD22, KRIVQRIKDW LRKCCKKP] (H-KRIVQRIKDWLRKCCKKP-OH; N-terminus and C-terminus assumed) | > 200 µg/mL | 34.3 (8.2) %
9 | > 115 µM | > 200 µg/mL | > 115 µM | > 200 µg/mL | > 115 µM | > 200 µg/mL |  |  |  | C[C@H](NC(=O)[C@H](CCCCN)NC(=O)CNC(=O)[C@@H](N)CCCNC(=N)N)C(=O)N[C@@H](CCCCN)C(=O)N[C@@H](CS)C(=O)N[C@@H](CS)C(=O)N[C@@H](CCCCN)C(=O)NCC(=O)N[C@H](C(=O)N[C@@H](CCCCN)C(=O)N[C@@H](CS)C(=O)N[C@@H](CS)C(=O)N[C@@H](CCCCN)C(=O)N[C@@H](CCCCN)C(=O)N1CCC[C@H]1C(=O)O)[C@@H](C)O [DD12, RGKAKCCKGT KCCKKP] (H-RGKAKCCKGTKCCKKP-OH; N-terminus and C-terminus assumed) |  | 
10 | > 92.3 µM | > 200 µg/mL | > 92.3 µM | > 200 µg/mL | > 92.3 µM | > 200 µg/mL |  |  |  | C[C@H](NC(=O)[C@H](CCCCN)NC(=O)CNC(=O)[C@@H](N)CCCNC(=N)N)C(=O)N[C@@H](CCCCN)C(=O)N[C@@H](CS)C(=O)N[C@@H](CS)C(=O)N[C@@H](CCCCN)C(=O)N[C@@H](CCCNC(=N)N)C(=O)NCC(=O)N[C@@H](CCCNC(=N)N)C(=O)N[C@@H](CCCCN)C(=O)N[C@@H](CS)C(=O)N[C@@H](CS)C(=O)N[C@@H](CCCNC(=N)N)C(=O)N[C@@H](CCCNC(=N)N)C(=O)N[C@@H](CCCCN)C(=O)N[C@@H](CCCCN)C(=O)O [DD13, RGKAKCCKRG RKCCRRKK] (H-RGKAKCCKRGRKCCRRKK-OH; N-terminus and C-terminus assumed) |  | 

Source: article PMC8443647, “Hybrid derivative of cathelicidin and human beta defensin-2 against Gram-positive bacteria: A novel approach for the treatment of bacterial keratitis” (Scientific Reports, 2021)
